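Where inhibition never reached the appropriate level, the endpoint shown equals the highest concentration tested. Otherwise, values were interpolated linearly from a five-concentration, 48-hour dose response in 96-well plates. The concentration for 50% growth inhibition is given as GI50.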 Active and inactive are the calls of the source. No stated cut-off is given here; in the data, active = GI50 up to about 1.1 µM and inactive = higher.
What was measured:
Experiment in all cases: NCI tumour cell line growth inhibition, 48 h
[1] = tested on: 786-0
[2] = tested on: A498
[3] = tested on: A549
[4] = tested on: ACHN
[5] = tested on: BT-549
[6] = tested on: CAKI-1
[7] = tested on: CCRF-CEM
[8] = tested on: COLO 205
[9] = tested on: DU-145
[10] = tested on: EKVX
[11] = tested on: HCT-116
[12] = tested on: HOP-62
[13] = tested on: HOP-92
[14] = tested on: HT-29
[15] = tested on: Hs-578T
[16] = tested on: IGROV-1
[17] = tested on: K562
[18] = tested on: KM12
[19] = tested on: LOX IMVI
[20] = tested on: M14
[21] = tested on: MCF7
[22] = tested on: MDA-MB-231
[23] = tested on: MDA-MB-435
[24] = tested on: MDA-N
[25] = tested on: MOLT-4
[26] = tested on: Malme-3M
[27] = tested on: NCI-H226
[28] = tested on: NCI-H23
[29] = tested on: NCI-H522
[30] = tested on: NCI/ADR-RES
[31] = tested on: OVCAR-3
[32] = tested on: OVCAR-5
[33] = tested on: OVCAR-8
[34] = tested on: PC-3
[35] = tested on: RPMI-8226
[36] = tested on: RXF 393
[37] = tested on: SF-268
[38] = tested on: SF-295
[39] = tested on: SK-MEL-28
[40] = tested on: SK-MEL-2
[41] = tested on: SK-MEL-5
[42] = tested on: SK-OV-3
[43] = tested on: SN12C
[44] = tested on: SNB-75
[45] = tested on: SR
[46] = tested on: SW-620
[47] = tested on: T47D
[48] = tested on: TK-10
[49] = tested on: U-251
[50] = tested on: UACC-257
[51] = tested on: UACC-62
[52] = tested on: UO-31

Measured: GI50

COC(=O)c1c(C#N)[nH]c(-c2ccsc2)c1C(=O)OC
inactive: [1] > 100 µM | [2] > 100 µM | [3] > 100 µM | [4] > 100 µM | [5] > 100 µM | [6] 33.4 µM | [7] > 100 µM | [8] > 100 µM | [9] > 100 µM | [10] > 100 µM | [11] > 100 µM | [12] > 100 µM | [13] 51.6 µM | [14] > 100 µM | [15] > 100 µM | [16] > 100 µM | [17] 78 µM | [18] > 100 µM | [19] > 100 µM | [20] > 100 µM | [21] > 100 µM | [22] > 100 µM | [23] > 100 µM | [24] > 100 µM | [25] > 100 µM | [26] > 100 µM | [27] > 100 µM | [28] > 100 µM | [29] > 100 µM | [30] > 100 µM | [31] > 100 µM | [32] > 100 µM | [33] > 100 µM | [34] 70.6 µM | [35] 40.4 µM | [36] > 100 µM | [37] > 100 µM | [38] > 100 µM | [39] > 100 µM | [40] > 100 µM | [41] 39 µM | [42] > 100 µM | [43] > 100 µM | [44] > 100 µM | [45] > 100 µM | [46] > 100 µM | [47] 37.1 µM | [48] > 100 µM | [49] > 100 µM | [50] 40.6 µM | [51] 76 µM | [52] 56.4 µM
